Measurements as given in patent publication US20230095021A1, “MODULATORS OF TDP-43” (Alteron Therapeutics, Inc., priority 2019, published 2023).

Tests used:
Phe508del-CFTR = Phe508del-CFTR localization, immunofluorescence microscopy, primary bronchial epithelial cells of a cystic fibrosis patient; format: cell-based, human; conditions: primary bronchial epithelial cells homozygous for Phe508del-CFTR, 4 μM, 3 days
Description: MDA-MB-231 and U-87 MG cells were cultured on cover slips under the conditions as described above. Cells were treated with DMSO or 4 μM ALT-59 for 3 days. Primary human bronchial epithelial cells isolated from cystic fibrosis patient homozygous for Phe508del-CFTR (Lifeline Cell Technology) were cultured on cover slips in BronchiaLife Cell Culture Medium supplemented with BrochiaLife LifeFactors Kit (Lifeline Cell Technology) and maintained at 37° C. in a CO2 incubator. Cells were treated with DMSO, 4 μM ALT-59, 2 μM ALT-308, or 4 μM ALT-410 for 3 days.
Cells were fixed in 4% paraformaldehyde for 15 minutes and permeabilized in 0.1% Triton X-100 for 2 minutes. After being blocked in 5% BSA (Sigma-Aldrich), cells were incubated with anti-CFTR antibody (Alomone Labs) followed by Alexa Fluor 488 anti-rabbit secondary antibody. Reagents were buffered in GIBCO PBS (Phosphate-Buffered Saline). Images were taken using Carl Zeiss LSM 510 Laser Scanning Microscope. Parameters were set identical for all images.

BACE1 = assay: Screening for ALT-59 derivatives with BACE1 protein levels as indicator, U-87 MG cells; format: cell-based; conditions: 2 days, concentrations as indicated in FIGS. 15-17
Description: Additional experiments were performed to screen for compounds with higher potency and the ability to penetrate blood brain barrier using BACE1 protein levels as an indicator. U-87 MG cells were cultured as described previously and treated for 2 days with compounds at concentrations as indicated in FIGS. 15-17. Cells were then subjected to Western blotting analysis using anti-BACE1 and anti-beta-actin antibodies.

CCCOc1ccc(C2Nc3ccc4ccccc4c3C3=C2C(=O)CCC3)cc1 (centres unmarked) [ALT-410, 5-(4-propoxyphenyl)-2,3,5,6-tetrahydrobenzo[a]phenanthridin-4(1H)-one]
localization of Phe508del-CFTR on the plasma membrane (Phe508del-CFTR): increased localization of Phe508del-CFTR on the plasma membrane | BACE1 protein expression (BACE1): capable of lowering BACE1 expression
